Earlier results as cited in publication PMC2803438 (Current Chemical Genomics, 2008).

Assays:
Hsc70 [1] = details: read-out: Kd, binding to Hsc70; moderate affinity
Hsc70 [2] = details: read-out: IC50 for binding to Hsc70

Compound	Kd (Hsc70 [1]) [nM]	IC50 (Hsc70 [2]) [nM]
N=C(N)NCCCCCCC(=O)NC(O)C(=O)NCCCCNCCCN (centres unmarked) [15-deoxyspergualin]	500	
NIVRKKK		2800
